According to patent US7838533B2, “Azaindole inhibitors of MTP and ApoB” (Merck Patent GmbH, priority 2004, dated 2010):

Experiments:
[1] = molecular target: T1, microsomal triglyceride transfer protein (MTP) (Mesocricetus auratus, UniProt P55158); experiment: Inhibition of MTP activity: transfer of [3H]-triolein from donor liposomes to biotinylated LDL, SPA; type: biochemical; settings: MTP from golden hamster liver; incubation 18-24 hours at 37° C.
T1 construct: The supernatant comprising the soluble MTP is dialysed; from tissue; host or cells: golden hamster liver microsomes, deoxycholate-solubilised supernatant
T1 sequence (P55158 19-895): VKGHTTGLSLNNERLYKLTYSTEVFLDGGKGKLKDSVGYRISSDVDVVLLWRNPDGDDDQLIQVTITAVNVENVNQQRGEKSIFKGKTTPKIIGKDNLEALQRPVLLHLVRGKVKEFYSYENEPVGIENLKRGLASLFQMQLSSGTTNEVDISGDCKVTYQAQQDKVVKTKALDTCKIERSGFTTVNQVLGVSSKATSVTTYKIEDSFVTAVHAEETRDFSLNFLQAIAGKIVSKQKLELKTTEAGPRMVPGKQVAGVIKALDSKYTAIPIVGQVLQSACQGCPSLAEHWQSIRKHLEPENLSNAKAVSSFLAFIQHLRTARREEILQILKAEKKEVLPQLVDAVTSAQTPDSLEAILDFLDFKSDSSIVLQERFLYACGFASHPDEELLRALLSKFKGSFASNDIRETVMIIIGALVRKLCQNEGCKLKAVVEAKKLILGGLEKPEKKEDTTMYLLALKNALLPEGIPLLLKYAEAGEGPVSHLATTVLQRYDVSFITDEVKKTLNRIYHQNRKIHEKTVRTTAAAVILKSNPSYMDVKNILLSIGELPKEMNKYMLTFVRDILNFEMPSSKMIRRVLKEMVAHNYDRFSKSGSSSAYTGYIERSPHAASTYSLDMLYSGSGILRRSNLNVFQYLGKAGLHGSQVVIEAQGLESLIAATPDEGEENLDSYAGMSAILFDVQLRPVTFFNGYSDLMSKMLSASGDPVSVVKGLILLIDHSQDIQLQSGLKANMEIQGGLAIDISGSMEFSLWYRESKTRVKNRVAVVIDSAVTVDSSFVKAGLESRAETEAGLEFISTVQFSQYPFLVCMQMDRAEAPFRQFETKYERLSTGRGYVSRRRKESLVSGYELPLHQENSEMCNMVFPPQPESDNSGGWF
Method: The inhibition of the activity of microsomal triglyceride transfer protein (MTP) was tested by using the following operating protocol.
The inhibition of MTP activity with a compound can be quantified by observing the inhibition of the transfer of a labelled triglyceride, from a donor particle to an acceptor particle, in the presence of MTP. The procedure for the preparation of MTP is based on the method by Wetterau and Zilversmit (Biochem. Biophys. Acta (1986) 875, 610). A few grams of golden hamster liver are taken and then rinsed several times in a 250 mM sucrose solution at 0° C. All the following steps proceed at +4° C. A homogenate at a concentration of 50% in 250 mM sucrose is prepared using a Teflon mill and then centrifuged for 10 minutes at 10 000×g at +4° C. The supernatant is then centrifuged at 105 000×g for 75 minutes at +4° C. The supernatant is discarded and the microsomal pellet is taken up in 3 ml (per g of starting liver) of Tris/HCl 150 mM pH 8.0. 1-ml aliquot fractions are stored at −80° C. until the time of use.
After thawing a fraction of microsomes (1 ml), 12 ml of refrigerated Tris/HCl 50 mM, KCl 50 mM, MgCl2 5 mM pH 7.4 buffers and 1.2 ml of deoxycholate (0.54% in water) are added. After incubation for 30 minutes at +4° C. with gentle agitation, the suspension is centrifuged at […] for 75 minutes. […]
The reaction mixture is prepared in untreated ½ well white plates (Corning Costar) by addition, in the following order, of: 5 μl of HEPES 50 mM, NaCl 150 mM, BSA 0.1% (w/v), 0.05% sodium azide (w/v), pH 7.4 buffer; 5 μl of liposomes; 5 μl of LDL-biot; 5 μl of test products in DMSO; 5 μl of MTP. After incubation for 18-24 hours at 37° C., the reaction is stopped adding 100 μl of Amersham SPA (Scintillation Proximity Assay) beads coupled to streptavidin, and the radioactivity is counted using a Top Count (Packard) machine at least one hour later. The inhibition of the transfer of the triglycerides with a compound is reflected by a reduction in the transferred radioactivity. […]

[2] = tested on: apo B secretion in HepG2 cells; experiment: Inhibition of ApoB secretion in HepG2 cells, sandwich ELISA; type: cell-based; settings: 24 hours incubation, ELISA specific for human apo B
Method: The activity of a compound according to the invention can be evaluated by measuring the inhibition of apo B secretion in HepG2 cells.
The HepG2 cells (ECACC No. 85011430) are used as model in the study of the in vitro hepatic secretion of lipoproteins (Dixon J. and Ginsberg H., J. Lipid. Res., 1993, 34, 167-179).
The HepG2 cells are cultured in Dulbecco's modified Eagle's medium comprising 10% foetal calf serum (DMEM and FBS-Gibco) in 96-well plates under an atmosphere of 5% carbon dioxide for 24 hours (about 70% confluence).
The test compounds are dissolved at a concentration of 2 or 10 mM in dimethyl sulfoxide (DMSO). Serial dilutions (1:3.16) are made in DMSO and are added (1:200—Robot Multimek Beckman) to the growth medium (200 μL) and then finally incubated for 24 hours in the various wells containing the HepG2 cells.
The 24-hour culture supernatant diluted to 1:5 (phosphate-buffered saline: PBS comprising 1% bovine serum albumin) is tested according to a sandwich-ELISA method specific for human apo B.
The results are expressed in terms of IC50, i.e. the concentration that produces a 50% inhibition of apo B secretion in the HepG2 cells.

CS(=O)(=O)c1ccc(CNC(=O)C(CCCCn2cc(-c3ccccc3)c3cccnc32)C2CCCCC2)cc1 (stereo not drawn)
IC50 [1]: 529 nM
IC50 [2]: 3 nM

O=C(NCc1ccncc1)C(CCCCCn1cc(-c2ccccc2)c2cccnc21)C1CCCC1 (stereo not drawn)
IC50 [1]: 381 nM
IC50 [2]: 18 nM

O=C(NCc1ccccc1)C(CCCCn1cc(-c2ccccc2)c2cccnc21)C1CCCCCC1 (stereo not drawn)
IC50 [1]: 175 nM
IC50 [2]: 15 nM
